Measurements published in the NIST ThermoML archive (doi:10.1021/je401036f).
“And” between values parts separate entries of the source, which are not always exact repeats. Equal entries are not always repeated. ± gives the expanded uncertainty stated by the source.

Tests used:
[1] = 101 kPa, Liquid; for viscosity: Concentric cylinders viscometry; for mass density: Vibrating tube method
[2] = refractive index (Na D-line) (dimensionless); conditions: 101.33 kPa, Liquid, Standard Abbe refractometry
[3] = xn = mol fraction of the nth substance listed; conditions: 101 kPa, Liquid, x2 = 0; for viscosity: Concentric cylinders viscometry; for mass density: Vibrating tube method
[4] = refractive index (Na D-line) (dimensionless); xn = mol fraction of the nth substance listed; conditions: 101 kPa, Liquid, Standard Abbe refractometry, x2 = 0

For `CCC(C)O` (stereo not given) [butan-2-ol], the viscosity ([1]; 288.15 K) was 4.59 ± 0.14 mPa·s, the mass density ([1]; 288.15 K) was 810.524 ± 0.23 kg/m3 and the viscosity ([1]; 293.15 K) was 3.738 ± 0.12 mPa·s. It also gave a mass density ([1]; 293.15 K) of 806.487 ± 0.24 kg/m3, a viscosity ([1]; 298.15 K) of 3.074 ± 0.094 mPa·s and a mass density ([1]; 298.15 K) of 802.373 ± 0.24 kg/m3. The viscosity ([1]; 303.15 K) was 2.552 ± 0.078 mPa·s, the mass density ([1]; 303.15 K) was 798.174 ± 0.24 kg/m3 and the viscosity ([1]; 308.15 K) was 2.144 ± 0.066 mPa·s. For the same compound, the mass density ([1]; 308.15 K) was 793.881 ± 0.24 kg/m3, the viscosity ([1]; 313.15 K) was 1.818 ± 0.056 mPa·s and the mass density ([1]; 313.15 K) was 789.487 ± 0.24 kg/m3. It also gave a viscosity ([1]; 318.15 K) of 1.558 ± 0.048 mPa·s, a mass density ([1]; 318.15 K) of 784.988 ± 0.24 kg/m3 and a viscosity ([1]; 323.15 K) of 1.348 ± 0.042 mPa·s. The mass density ([1]; 323.15 K) was 780.38 ± 0.24 kg/m3, the viscosity ([1]; 328.15 K) was 1.179 ± 0.037 mPa·s and the mass density ([1]; 328.15 K) was 775.656 ± 0.24 kg/m3. The viscosity ([1]; 333.15 K) was 1.054 ± 0.033 mPa·s, the mass density ([1]; 333.15 K) was 770.82 ± 0.24 kg/m3 and the refractive index ([2]; 288.15 K) was 1.3995 ± 0.0004. The refractive index ([2]; 293.15 K) was 1.3974 ± 0.0004, the refractive index ([2]; 298.15 K) was 1.3952 ± 0.0004 and the refractive index ([2]; 303.15 K) was 1.393 ± 0.0004. For the same compound, the refractive index ([2]; 308.15 K) was 1.3907 ± 0.0004, the refractive index ([2]; 313.15 K) was 1.3883 ± 0.0004 and the refractive index ([2]; 318.15 K) was 1.3859 ± 0.0004. For the same compound, the refractive index ([2]; 323.15 K) was 1.3835 ± 0.0004, the refractive index ([2]; 328.15 K) was 1.381 ± 0.0004 and the refractive index ([2]; 333.15 K) was 1.3784 ± 0.0004.
For `CCC(C)O` (stereo not given) [butan-2-ol] + CC(O)CN, the viscosity ([3]; 288.15 K) was 4.59 ± 0.14 mPa·s, the mass density ([3]; 288.15 K) was 810.524 ± 0.23 kg/m3 and the viscosity ([3]; 293.15 K) was 3.738 ± 0.12 mPa·s. It also gave a mass density ([3]; 293.15 K) of 806.487 ± 0.24 kg/m3, a viscosity ([3]; 298.15 K) of 3.074 ± 0.094 mPa·s and a mass density ([3]; 298.15 K) of 802.373 ± 0.24 kg/m3. It also gave a viscosity ([3]; 303.15 K) of 2.552 ± 0.078 mPa·s, a mass density ([3]; 303.15 K) of 798.174 ± 0.24 kg/m3 and a viscosity ([3]; 308.15 K) of 2.144 ± 0.066 mPa·s. The mass density ([3]; 308.15 K) was 793.881 ± 0.24 kg/m3, the viscosity ([3]; 313.15 K) was 1.818 ± 0.056 mPa·s and the mass density ([3]; 313.15 K) was 789.487 ± 0.24 kg/m3. For the same compound, the viscosity ([3]; 318.15 K) was 1.558 ± 0.048 mPa·s, the mass density ([3]; 318.15 K) was 784.988 ± 0.24 kg/m3 and the viscosity ([3]; 323.15 K) was 1.348 ± 0.042 mPa·s. The mass density ([3]; 323.15 K) was 780.38 ± 0.24 kg/m3, the viscosity ([3]; 328.15 K) was 1.179 ± 0.037 mPa·s and the mass density ([3]; 328.15 K) was 775.656 ± 0.24 kg/m3. It also gave a viscosity ([3]; 333.15 K) of 1.054 ± 0.033 mPa·s, a mass density ([3]; 333.15 K) of 770.82 ± 0.24 kg/m3 and a refractive index ([4]; 288.15 K) of 1.3995 ± 0.0004. For the same compound, the refractive index ([4]; 293.15 K) was 1.3974 ± 0.0004, the refractive index ([4]; 298.15 K) was 1.3952 ± 0.0004 and the refractive index ([4]; 303.15 K) was 1.393 ± 0.0004. It also gave a refractive index ([4]; 308.15 K) of 1.3907 ± 0.0004, a refractive index ([4]; 313.15 K) of 1.3883 ± 0.0004 and a refractive index ([4]; 318.15 K) of 1.3859 ± 0.0004. The refractive index ([4]; 323.15 K) was 1.3835 ± 0.0004, the refractive index ([4]; 328.15 K) was 1.381 ± 0.0004 and the refractive index ([4]; 333.15 K) was 1.3784 ± 0.0004.
`CC(O)CN` (stereo not given) [1-amino-2-propanol] showed a viscosity ([1]; 288.15 K) of 43.7 ± 1.4 mPa·s, a mass density ([1]; 288.15 K) of 964.544 ± 0.8 kg/m3 and a viscosity ([1]; 293.15 K) of 31.68 ± 1 mPa·s. It also gave a mass density ([1]; 293.15 K) of 960.598 ± 0.79 kg/m3, a viscosity ([1]; 298.15 K) of 23.54 ± 0.75 mPa·s and a mass density ([1]; 298.15 K) of 956.618 ± 0.79 kg/m3. The viscosity ([1]; 303.15 K) was 17.89 ± 0.57 mPa·s and 17.9 ± 0.57 mPa·s, the mass density ([1]; 303.15 K) was 952.612 ± 0.78 kg/m3 and the viscosity ([1]; 308.15 K) was 13.88 ± 0.44 mPa·s. The mass density ([1]; 308.15 K) was 948.577 ± 0.78 kg/m3, the viscosity ([1]; 313.15 K) was 10.96 ± 0.35 mPa·s and the mass density ([1]; 313.15 K) was 944.515 ± 0.77 kg/m3. It also gave a viscosity ([1]; 318.15 K) of 8.798 ± 0.28 mPa·s, a mass density ([1]; 318.15 K) of 940.423 ± 0.77 kg/m3 and a viscosity ([1]; 323.15 K) of 7.166 ± 0.23 mPa·s. For the same compound, the mass density ([1]; 323.15 K) was 936.293 ± 0.76 kg/m3, the viscosity ([1]; 328.15 K) was 5.915 ± 0.19 mPa·s and the mass density ([1]; 328.15 K) was 932.13 ± 0.76 kg/m3. For the same compound, the viscosity ([1]; 333.15 K) was 4.986 ± 0.16 mPa·s, the mass density ([1]; 333.15 K) was 927.93 ± 0.75 kg/m3 and the refractive index ([2]; 288.15 K) was 1.45 ± 0.0005. For the same compound, the refractive index ([2]; 293.15 K) was 1.448 ± 0.0005, the refractive index ([2]; 298.15 K) was 1.446 ± 0.0005 and the refractive index ([2]; 303.15 K) was 1.444 ± 0.0005. The refractive index ([2]; 308.15 K) was 1.4419 ± 0.0005, the refractive index ([2]; 313.15 K) was 1.4399 ± 0.0005 and the refractive index ([2]; 318.15 K) was 1.4378 ± 0.0005. The refractive index ([2]; 323.15 K) was 1.4358 ± 0.0005, the refractive index ([2]; 328.15 K) was 1.4337 ± 0.0005 and the refractive index ([2]; 333.15 K) was 1.4315 ± 0.0005.
`CCCCO` [butan-1-ol] + CC(O)CN showed a viscosity ([3]; 288.15 K) of 3.367 ± 0.1 mPa·s, a mass density ([3]; 288.15 K) of 813.353 ± 0.23 kg/m3 and a viscosity ([3]; 293.15 K) of 2.914 ± 0.089 mPa·s. It also gave a mass density ([3]; 293.15 K) of 809.564 ± 0.23 kg/m3, a viscosity ([3]; 298.15 K) of 2.539 ± 0.078 mPa·s and a mass density ([3]; 298.15 K) of 805.752 ± 0.24 kg/m3. It also gave a viscosity ([3]; 303.15 K) of 2.228 ± 0.068 mPa·s, a mass density ([3]; 303.15 K) of 801.912 ± 0.24 kg/m3 and a viscosity ([3]; 308.15 K) of 1.962 ± 0.06 mPa·s. The mass density ([3]; 308.15 K) was 798.039 ± 0.24 kg/m3, the viscosity ([3]; 313.15 K) was 1.739 ± 0.054 mPa·s and the mass density ([3]; 313.15 K) was 794.13 ± 0.24 kg/m3. It also gave a viscosity ([3]; 318.15 K) of 1.547 ± 0.048 mPa·s, a mass density ([3]; 318.15 K) of 790.18 ± 0.24 kg/m3 and a viscosity ([3]; 323.15 K) of 1.382 ± 0.043 mPa·s. The mass density ([3]; 323.15 K) was 786.179 ± 0.24 kg/m3, the viscosity ([3]; 328.15 K) was 1.239 ± 0.038 mPa·s and the mass density ([3]; 328.15 K) was 782.125 ± 0.24 kg/m3. The viscosity ([3]; 333.15 K) was 1.138 ± 0.035 mPa·s, the mass density ([3]; 333.15 K) was 778.012 ± 0.24 kg/m3 and the refractive index ([4]; 288.15 K) was 1.4013 ± 0.0004. The refractive index ([4]; 293.15 K) was 1.3992 ± 0.0004, the refractive index ([4]; 298.15 K) was 1.3972 ± 0.0004 and the refractive index ([4]; 303.15 K) was 1.3951 ± 0.0004. For the same compound, the refractive index ([4]; 308.15 K) was 1.393 ± 0.0004, the refractive index ([4]; 313.15 K) was 1.391 ± 0.0004 and the refractive index ([4]; 318.15 K) was 1.3888 ± 0.0004. The refractive index ([4]; 323.15 K) was 1.3867 ± 0.0004, the refractive index ([4]; 328.15 K) was 1.3846 ± 0.0004 and the refractive index ([4]; 333.15 K) was 1.3824 ± 0.0004.
`CCCCO` [butan-1-ol] gave a viscosity ([1]; 288.15 K) of 3.367 ± 0.1 mPa·s, a mass density ([1]; 288.15 K) of 813.353 ± 0.23 kg/m3 and a viscosity ([1]; 293.15 K) of 2.914 ± 0.089 mPa·s. For the same compound, the mass density ([1]; 293.15 K) was 809.564 ± 0.23 kg/m3, the viscosity ([1]; 298.15 K) was 2.539 ± 0.078 mPa·s and the mass density ([1]; 298.15 K) was 805.752 ± 0.24 kg/m3. The viscosity ([1]; 303.15 K) was 2.228 ± 0.068 mPa·s, the mass density ([1]; 303.15 K) was 801.912 ± 0.24 kg/m3 and the viscosity ([1]; 308.15 K) was 1.962 ± 0.06 mPa·s. It also gave a mass density ([1]; 308.15 K) of 798.039 ± 0.24 kg/m3, a viscosity ([1]; 313.15 K) of 1.739 ± 0.054 mPa·s and a mass density ([1]; 313.15 K) of 794.13 ± 0.24 kg/m3. The viscosity ([1]; 318.15 K) was 1.547 ± 0.048 mPa·s, the mass density ([1]; 318.15 K) was 790.18 ± 0.24 kg/m3 and the viscosity ([1]; 323.15 K) was 1.382 ± 0.043 mPa·s. The mass density ([1]; 323.15 K) was 786.179 ± 0.24 kg/m3, the viscosity ([1]; 328.15 K) was 1.239 ± 0.038 mPa·s and the mass density ([1]; 328.15 K) was 782.125 ± 0.24 kg/m3. The viscosity ([1]; 333.15 K) was 1.138 ± 0.035 mPa·s, the mass density ([1]; 333.15 K) was 778.012 ± 0.24 kg/m3 and the refractive index ([2]; 288.15 K) was 1.4013 ± 0.0004. The refractive index ([2]; 293.15 K) was 1.3992 ± 0.0004, the refractive index ([2]; 298.15 K) was 1.3972 ± 0.0004 and the refractive index ([2]; 303.15 K) was 1.3951 ± 0.0004. It also gave a refractive index ([2]; 308.15 K) of 1.393 ± 0.0004, a refractive index ([2]; 313.15 K) of 1.391 ± 0.0004 and a refractive index ([2]; 318.15 K) of 1.3888 ± 0.0004. For the same compound, the refractive index ([2]; 323.15 K) was 1.3867 ± 0.0004, the refractive index ([2]; 328.15 K) was 1.3846 ± 0.0004 and the refractive index ([2]; 333.15 K) was 1.3824 ± 0.0004.
